Test system: virulent culture of M. haemolytica (Oklahoma State strain)
Format: in vivo, beef calves
Conditions: conclusion over vaccination and challenge study in calves
Procedure: For the vaccination challenge, 5 ml of a virulent culture of M. haemolytica (Oklahoma State strain) was administered by transthoracic injection into the right and left caudal lung lobes of each calf (10 ml of culture per calf) on Day 34 of the study. The inoculum contained approximately 5.6×10^8 CFU/ml.
One animal in T01 died immediately following challenge due to pulmonary hemorrhage as a result of challenge administration; thus its lung lesion data was excluded from the analysis. One animal in T03 was found dead on Day 37 as a result of severe pneumonia but was necropsied and its lung data was analyzed along with the data from the other animals. There were no significant differences between the treatment groups (P>0.05).

## Tulathromycin
  Overall adjuvant function / immune response indicators (antibody production, attitude, respiratory effort, lung lesions): appeared to effectively replace the adjuvant
